Here are results for 47 compounds from patent US8551984B2, “Aminopyrimidines as SYK inhibitors” (Merck Sharp & Dohme Corp., priority 2009, dated 2013).

In one assay the target is recombinant human SYK (GST-hSYK fusion protein) (Homo sapiens, UniProt P43405). As to conditions: read-out: rhSYK Activity (IC50); recombinant human GST-SYK 5 pM, ATP 25 μM, biotinylated substrate peptide 250 nM, HTRF, 10-dose titration. Background: TR-FRET usually uses a lanthanide donor and a delayed reading to cut background.
Text: Homogeneous Time-Resolved Fluorescence (HTRF) Assay for the Recombinant Human SYK Enzyme:
For `Cc1cc(Nc2nccc(C(F)(F)F)n2)cc(-c2cnc(C(=O)NCC(O)CO)s2)c1` (centres unmarked) [Example 87A-3], the IC50 was < 100 nM.

Turning to `Cc1cc(Nc2nccc(C(F)(F)F)n2)cc(-c2cnc(C(=O)NC[C@@H](O)CO)s2)c1` [Example 87A-4], the IC50 is < 100 nM.

On to `COC(=O)[C@H]1C[C@@H](O)CN1C(=O)c1ncc(-c2cc(C)cc(Nc3nccc(C(F)(F)F)n3)c2)s1` [Example 87B-23], for which the IC50 was < 100 nM.

In the case of `Cc1cc(Nc2nccc(C(F)(F)F)n2)cc(-c2cnc(C(=O)N3CC(O)CC3C(=O)O)s2)c1` (centres unmarked) [Example 87B-24], the IC50 was < 100 nM.

For `Cc1cc(Nc2nccc(OC3CNC3)n2)cc(-c2cnc(C3(O)CCC3)s2)c1` [Example 94A-28], the IC50 was < 100 nM.

As to `Cc1cc(Nc2nccc(OC3CCNCC3F)n2)cc(-c2cnc(C(C)(O)C(F)(F)F)s2)c1` (centres unmarked) [Example 94B-7], the IC50 was < 100 nM.

Turning to `Cc1cc(Nc2nccc(O[C@@H]3CCNC3)n2)cc(-c2cnc(C(C)(O)C(F)(F)F)s2)c1` (some centres unmarked) [Example 94B-8], the IC50 is < 100 nM.

Take `Cc1cc(Nc2nc(C)cc(C)n2)cc(-c2cnc(C3(O)CCC(C(=O)O)C(C)(C)C3)s2)c1` (centres unmarked) [Example 100A-10]: the IC50 was 100 to 1000 nM.

Staying with this assay, now noted: read-out: rhSYK Activity; Table 33-A.
Turning to `Cc1cc(Nc2nccc(C3CC3)n2)cc(-c2cnc(C3(O)CCC(C(=O)O)C(C)(C)C3)s2)c1` (centres unmarked) [Example 33A-42], the IC50 is < 100 nM.

Take `CC1(C)CC(O)(c2ncc(-c3cc(CO)cc(Nc4nccc(C(F)(F)F)n4)c3)s2)CCC1C(=O)O` (centres unmarked) [Example 33A-53]: the IC50 is < 100 nM.

For the compound `Cc1cc(Nc2nccc(C)n2)cc(-c2cnc(C3(O)CCC(C(=O)O)C(C)(C)C3)s2)c1` (centres unmarked) [Example 33A-68], the IC50 was < 100 nM.

Turning to `Cc1cc(Nc2nccc(C(F)(F)F)n2)cc(-c2cnc(C3(O)CCC(C(=O)O)C(C)(C)C3C)s2)c1` (centres unmarked) [Example 33A-76], the IC50 was < 100 nM.

Staying with this assay, now noted: read-out: rhSYK Activity; Table 33B.
Take `Cc1cc(Nc2nccc(C(F)(F)F)n2)cc(-c2cnc(C3(O)CCCC(C(=O)O)C(C)(C)C3)s2)c1` (centres unmarked) [Example 33B-8]: the IC50 is < 100 nM.

Take `Cc1cc(Nc2nccc(C(F)(F)F)n2)cc(-c2cnc(C3(O)CCCC(C(=O)O)C(C)(C)C3)s2)c1` (centres unmarked) [Example 33B-9]: the IC50 was < 100 nM.

Turning to `Cc1cc(Nc2nccc(C(F)(F)F)n2)cc(-c2cnc(C3(O)CCCC(C(=O)O)C(C)(C)C3)s2)c1` (centres unmarked) [Example 33B-10], the IC50 is < 100 nM.

For `Cc1cc(Nc2nccc(C(F)(F)F)n2)cc(-c2cnc(C3(O)CCCC(C(=O)O)C(C)(C)C3)s2)c1` (centres unmarked) [Example 33B-12], the IC50 is < 100 nM.

On to `Cc1cc(Nc2nccc(C)n2)cc(-c2cnc(C3(O)CCC(C(=O)O)C(C)C3)s2)c1` (centres unmarked) [Example 33B-32], for which the IC50 was < 100 nM.

For the compound `Cc1cc(Nc2nccc(C)n2)cc(-c2cnc(C3(O)CCC(C(=O)O)C(C(C)C)C3)s2)c1` (centres unmarked) [Example 33B-34], the IC50 was < 100 nM.

Turning to `Cc1cc(Nc2nccc(C)n2)cc(-c2cnc(C3(O)CCC(C(=O)O)C(C(C)C)C3)s2)c1` (centres unmarked) [Example 33B-36], the IC50 was < 100 nM.

The same assay, now with this note: read-out: rhSYK Activity; Table 33C.
Turning to `Cc1cc(Nc2nccc(C(F)(F)F)n2)cc(-c2cnc(C3(O)C[C@@H]4C(C(=O)O)[C@@H]4C3)s2)c1` (some centres unmarked) [Example 33C-10], the IC50 is < 100 nM.

Consider `CCOC(=O)C1[C@H]2CC(O)(c3ncc(-c4cc(C)cc(Nc5nccc(C(F)(F)F)n5)c4)s3)C[C@@H]12` (some centres unmarked) [Example 33C-12], for which the IC50 was < 100 nM.

In the case of `Cc1cc(Nc2nccc(C)n2)cc(-c2cnc(C3(O)CC4CCC3CC4C(=O)O)s2)c1` (centres unmarked) [Example 33C-19], the IC50 was < 100 nM.

Staying with this assay, now noted: read-out: rhSYK Activity; Table 36A.
For `COC(=O)C1CCC(c2ncc(-c3cccc(Nc4nccc(C(F)(F)F)n4)c3)s2)CC1` (centres unmarked) [Example 36A-5], the IC50 lay in the range of 100 to 1000 nM.

The same assay, now with this note: read-out: rhSYK Activity; Table 54D.
For the compound `Cc1cc(Nc2nccc(C(C)C)n2)cc(-c2cnc(C3(O)CCCN(C(=O)C(C)O)CC3)s2)c1` (centres unmarked) [Example 54D-3], the IC50 is < 100 nM.

For the compound `Cc1cc(Nc2nccc(C(F)(F)F)n2)cc(-c2cnc(C3(O)CCCN(C(=O)c4cnn[nH]4)CC3)s2)c1` (centres unmarked) [Example 54D-35], the IC50 was < 100 nM.

As to `Cc1cc(Nc2nccc(C(F)(F)F)n2)cc(-c2cnc(C3(O)CCCN(C(=O)c4n[nH]c(=O)[nH]4)CC3)s2)c1` (centres unmarked) [Example 54D-63], the IC50 is < 100 nM.

Consider `Cc1cc(Nc2nccc(C(F)(F)F)n2)cc(-c2cnc(C3(O)CCCN(C(=O)CC4CCOC4)CC3)s2)c1` (centres unmarked) [Example 54D-69], for which the IC50 was < 100 nM.

For `Cc1cc(Nc2nccc(C(F)(F)F)n2)cc(-c2cnc(C3(O)CCCN(C(=O)Cc4n[nH]c(=O)[nH]4)CC3)s2)c1` (centres unmarked) [Example 54D-94], the IC50 is < 100 nM.

The assay is the same for the next values; noted with them: read-out: rhSYK Activity; Table 54E.
As for `Cc1cc(Nc2nccc(C(F)(F)F)n2)cc(-c2cnc(C3(O)CCC(NC(=O)CC4CCCO4)CC3)s2)c1` (centres unmarked) [Example 54E-19], the IC50 is < 100 nM.

The assay is the same for the next values; noted with them: read-out: rhSYK Activity; Table 108A.
Turning to `Cc1cc(Nc2nccc(OC3CCCNCC3)n2)cc(-c2cnc(C3(O)CCC3)s2)c1` (centres unmarked) [Example 108A-10], the IC50 is < 100 nM.

`Cc1cc(Nc2nccc(OC3CCCNCC3)n2)cc(-c2cnc(C3(O)CCC3)s2)c1` (centres unmarked) [Example 108A-11]: the IC50 was < 100 nM.

The same assay, now with this note: read-out: rhSYK Activity; Table 113A.
For the compound `Cc1cc(Nc2nccc(C)n2)cc(-c2cnc(C3(O)CCC(C(=O)O)C(C)C3)s2)c1` (centres unmarked) [Example 113A-5], the IC50 is < 100 nM.

As for `Cc1cc(Nc2nccc(C)n2)cc(-c2cnc(C3(O)CCC(C(=O)O)C(C)C3)s2)c1` (centres unmarked) [Example 113A-6], the IC50 was < 100 nM.

For the compound `Cc1cc(Nc2nccc(C)n2)cc(-c2cnc(C3(O)CCC(C(=O)O)C(C)C3)s2)c1` (centres unmarked) [Example 113A-7], the IC50 was < 100 nM.

With `CCc1ccnc(Nc2cc(C)cc(-c3cnc(C4(O)CCC(C(=O)O)C(C)C4)s3)c2)n1` (centres unmarked) [Example 113A-15], the IC50 is < 100 nM.

For the compound `Cc1ccnc(Nc2cc(-c3cnc(C4(O)CCC(C(=O)O)C(C)C4)s3)cc(C3CC3)c2)n1` (centres unmarked) [Example 113A-24], the IC50 was < 100 nM.

Turning to `CCOC(=O)C1CCC(O)(c2ncc(-c3cc(C)cc(Nc4nccc(CC)n4)c3)s2)CC1C` (centres unmarked) [Example 113A-32], the IC50 is < 100 nM.

Turning to `COCCOc1ccnc(Nc2cc(C)cc(-c3cnc(C4(O)CCC(C(=O)O)C(C)C4)s3)c2)n1` (centres unmarked) [Example 113A-39], the IC50 is < 100 nM.

Take `COCCCOc1ccnc(Nc2cc(C)cc(-c3cnc(C4(O)CCC(C(=O)O)C(C)C4)s3)c2)n1` (centres unmarked) [Example 113A-41]: the IC50 is < 100 nM.

Regarding `CCOC(=O)C1CCC(O)(c2ncc(-c3cc(C)cc(Nc4nccc(OCCOC)n4)c3)s2)CC1C` (centres unmarked) [Example 113A-44], the IC50 was < 100 nM.

Regarding `CCOC(=O)C1CCC(O)(c2ncc(-c3cc(C)cc(Nc4nccc(OCCCOC)n4)c3)s2)CC1C` (centres unmarked) [Example 113A-48], the IC50 was < 100 nM.

With `Cc1cc(Nc2nccc(C)n2)cc(-c2cnc(C3(O)CCC(C(=O)O)C(C)C3C)s2)c1` (centres unmarked) [Example 113A-67], the IC50 was < 100 nM.

As for `Cc1cc(Nc2nccc(C)n2)cc(-c2cnc(C3(O)CCC(C(=O)O)C(C)C3C)s2)c1` (centres unmarked) [Example 113A-68], the IC50 was < 100 nM.

For `Cc1cc(Nc2nccc(C)n2)cc(-c2cnc(C3(O)CCC(C(=O)O)C(C)C3C)s2)c1` (centres unmarked) [Example 113A-69], the IC50 is < 100 nM.

Consider `CCOC(=O)C1CCC(O)(c2ncc(-c3cc(C)cc(Nc4nccc(C)n4)c3)s2)C(C)C1C` (centres unmarked) [Example 113A-71], for which the IC50 was < 100 nM.

Consider `CCOC(=O)C1CCC(O)(c2ncc(-c3cc(C)cc(Nc4nccc(C)n4)c3)s2)C(C)C1C` (centres unmarked) [Example 113A-72], for which the IC50 is < 100 nM.

On to `CCOC(=O)C1CCC(O)(c2ncc(-c3cc(C)cc(Nc4nccc(C)n4)c3)s2)C(C)C1C` (centres unmarked) [Example 113A-73], for which the IC50 was < 100 nM.
